Data as given in patent US6737383B1, “Herbicidal oxadiazolidines” (priority 1999, dated 2004).

Experiments:
purple nutsedge [1] = experiment: Test C postemergence purple nutsedge; format: in vivo, Cyperus rotundus; conditions: 0 to 100 scale, 0 no effect, 100 complete control
Procedure: Compounds evaluated in this test were formulated in a non-phytotoxic solvent mixture which included a surfactant and applied to plants that were grown for various periods of time before treatment (postemergence application). A mixture of sandy loam soil and greenhouse potting mix in a 60:40 ratio was used for the postemergence test.
Plantings of these crops and weed species were adjusted to produce plants of appropriate size for the postemergence test. All plant species were grown using normal greenhouse practices. Crop and weed species include arrowleaf sida (Sida rhombifolia), barnyardgrass (Echinochloa crus-galli), cocklebur (Xanthium strumarium), common ragweed (Ambrosia elatior), corn (Zea mays), cotton (Gossypium hirsutum), eastern black nightshade (Solanum ptycanthum), fall panicum (Panicum dichotomiflorum), field bindweed (Convolvulus arvensis), giant foxtail (Setaria faberii), hairy beggarticks (Bidens pilosa), ivyleaf morningglory (Ipomoea hederacea), johnsongrass (Sorghum halepense), ladysthumb smartweed (Polygonum persicaria), lambsquarters (Chenopodium album), large crabgrass (Digitaria sanguinalis), purple nutsedge (Cyperus rotundus), redroot pigweed (Amaranthus retroflexus), soybean (Glycine max), surinam grass (Brachiaria decumbens), velvetleaf (Abutilon theophrasti) and wild poinsettia (Euphorbia heterophylla).
Treated plants and untreated controls were maintained in a greenhouse for approximately 14, to 21 days, after which all treated plants were compared to untreated controls and visually evaluated. Plant response ratings, summarized in Table C, were based upon a 0 to 100 scale where 0 was no effect and 100 was complete control. A dash response (−) means no test result.

field bindweed = experiment: Test C postemergence field bindweed; format: in vivo, Convolvulus arvensis; conditions: 0 to 100 scale, 0 no effect, 100 complete control
Procedure, shortened: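 Visual ratings on a 0 to 100 scale, where 0 means no effect and 100 complete control, were made versus untreated controls roughly 14 to 21 days after postemergence treatment. Test compounds were formulated in a non-phytotoxic solvent mixture containing a surfactant.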

bermuda-grass = experiment: Test D bermudagrass; format: in vivo, Cynodon dactylon; conditions: Rate 64 g/ha, Preemergence; 0 to 100 scale, 0 no injury, 100 complete control
Procedure, shortened: (§1)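 Greenhouse pots, sandy loam, single species per pot. Preemergence tests: soil-surface application ≤1 day after planting. Compound formulated in non-phytotoxic solvent with surfactant. Visual rating 14–21 DAT, scale 0–100.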

tall mallow = experiment: Test D tall mallow; format: in vivo, Malva sylvestris; conditions: Rate 64 g/ha, Preemergence; 0 to 100 scale, 0 no injury, 100 complete control
Procedure, shortened: as §1

common groundsel = experiment: Test D common groundsel; format: in vivo, Senecio vulgaris; conditions: Rate 64 g/ha, Preemergence; 0 to 100 scale, 0 no injury, 100 complete control
Description: (§2) Seeds, tubers, or plant parts of Alexandergrass (Brachiaria plantaginea), bermuda-grass (Cynodon dactylon), common pursiane (Portulaca oleracea), common ragweed (Ambrosia elatior), common groundsel (Senecio vulgaris), dallisgrass (Paspalum dilatatum), goosegrass (Eleusine indica), guineagrass (Panicum maximum), itchgrass (Rottboellia exaltata), Johnson grass (Sorghum halepense), large crabgrass (Digitaria sanguinalis), pitted morningglory (Ipomoea lacunosa), purple nutsedge (Cyperus rotundus), sandbur (Cenchrus echinatus), sourgrass (Trichachne insularis), Spanishneedles (Bidens bipinnata), surinam grass (Brachiaria decumbens) and tall mallow (Malva sylvestris) were planted into greenhouse pots of flats containing greenhouse planting medium. Plant species were grown in separate pots or individual compartments. Preemergence applications were made within one day of planting the seed or plant part.
(§3) Test chemicals were formulated in a non-phytotoxic solvent mixture which included a surfactant and applied preemergence to the surface of the pot containing seeds in a sandy loam soil. Untreated control pots and treated pots were placed in the greenhouse for growth and visually evaluated for injury 14 to 21 days after herbicide application. Plant response ratings, summarized in Table C, are based on a 0 to 100 scale where 0 is no injury and 100 is complete control. A dash (−) response means no test result.

goosegrass [2] = experiment: Test D goosegrass; format: in vivo, Eleusine indica; conditions: Rate 64 g/ha, Preemergence; 0 to 100 scale, 0 no injury, 100 complete control
Description: as §2, §3

guineagrass = experiment: Test D guineagrass; format: in vivo, Panicum maximum; conditions: Rate 64 g/ha, Preemergence; 0 to 100 scale, 0 no injury, 100 complete control
Description: as §2, §3

purple nutsedge [3] = experiment: Test D purple nutsedge; format: in vivo, Cyperus rotundus; conditions: Rate 64 g/ha, Preemergence; 0 to 100 scale, 0 no injury, 100 complete control
Description: as §2, §3

common pursiane = experiment: Test D common purslane; format: in vivo, Portulaca oleracea; conditions: Rate 64 g/ha, Preemergence; 0 to 100 scale, 0 no injury, 100 complete control
Procedure, shortened: as §1

Johnson grass = experiment: Test D Johnson grass; format: in vivo, Sorghum halepense; conditions: Rate 64 g/ha, Preemergence; 0 to 100 scale, 0 no injury, 100 complete control
Procedure, shortened: as §1

Spanishneedles = experiment: Test D Spanishneedles; format: in vivo, Bidens bipinnata; conditions: Rate 64 g/ha, Preemergence; 0 to 100 scale, 0 no injury, 100 complete control
Description: as §2, §3

Green foxtail [4] = experiment: Test D green foxtail; format: in vivo; conditions: Postemergence, 0 to 100 scale, 0 no injury, 100 complete control
Green foxtail [5] = experiment: Test D green foxtail; format: in vivo; conditions: Rate 250 g/ha; Postemergence; 0 to 100 scale
large crabgrass = experiment: Test D large crabgrass; format: in vivo, Digitaria sanguinalis; conditions: Postemergence, 0 to 100 scale
goosegrass [6] = experiment: Test D goosegrass; format: in vivo, Eleusine indica; conditions: Postemergence, 0 to 100 scale
purple nutsedge [7] = experiment: Test D purple nutsedge; format: in vivo, Cyperus rotundus; conditions: Postemergence, 0 to 100 scale
Green foxtail [8] = experiment: Test D green foxtail; format: in vivo; conditions: Rate 250 g/ha; Postemergence; 0 to 100 scale; remark: listed apart in the source
[9] = Rate 16 g/ha, 0 no injury, 100 complete control
[10] = Rate 32 g/ha, 0 no injury, 100 complete control
[11] = Rate 64 g/ha, 0 no injury, 100 complete control
[12] = Rate 125 g/ha, 0 no injury, 100 complete control

CCn1c(=O)on(C(=O)N(c2ccc(F)cc2F)C(C)C)c1=O [Compound 116] was tested, and the “Plant response rating, Purple nutsedge” value (purple nutsedge [1]; Rate 140 g/ha) was 0, the “Plant response rating, Purple nutsedge” value (purple nutsedge [1]; Rate 280 g/ha) was 0 and the “Plant response rating, Purple nutsedge” value (purple nutsedge [1]; Rate 560 g/ha) was 10. The “Plant response rating, Purple nutsedge” value (purple nutsedge [1]; Rate 1120 g/ha) was 10, the “Plant response rating Field bindweed” value (field bindweed; Rate 140 g/ha) was 0 and the “Plant response rating Field bindweed” value (field bindweed; Rate 280 g/ha) was 0. For the same molecule, the “Plant response rating Field bindweed” value (field bindweed; Rate 560 g/ha) was 50 and the “Plant response rating Field bindweed” value (field bindweed; Rate 1120 g/ha) was 50.

For C=C(C)Cn1c(=O)on(C(=O)N(c2ccc(F)cc2)C(C)C)c1=O [Compound 139], the “Plant response rating, Bermudagrass” value (bermuda-grass) was 98, the “Tall Mallow plant response rating” value (tall mallow) was 20 and the “Plant response rating, Com. groundsel” value (common groundsel) was 0. The “Plant response rating, Goosegrass” value (goosegrass [2]) was 98, the “Plant response rating, Guineagrass” value (guineagrass) was 65 and the “Purple nutsedge plant response rating” value (purple nutsedge [3]) was 0. For the same molecule, the “Plant response rating, C. purslane” value (common pursiane) was 0, the “Plant response rating Johnsongrass” value (Johnson grass) was 10 and the “Spanishneedles plant response rating” value (Spanishneedles) was 20.

CC(C)N(C(=O)n1oc(=O)n(C2CC2)c1=O)c1ccccc1 [Compound 243] was tested, and the “Plant response rating, Green foxtail” value (Green foxtail [4]; Rate 16 g/ha) was 10, the “Plant response rating, Green foxtail” value (Green foxtail [4]; Rate 32 g/ha) was 100 and the “Plant response rating, Green foxtail” value (Green foxtail [5]) was 100. For the same molecule, the “Plant response rating Large crabgrass” value (large crabgrass; [9]) was 0, the “Plant response rating Large crabgrass” value (large crabgrass; [10]) was 70 and the “Plant response rating Large crabgrass” value (large crabgrass; [11]) was 100. For the same molecule, the “Plant response rating Large crabgrass” value (large crabgrass; [12]) was 100, the “Plant response rating Large crabgrass” value (large crabgrass; Rate 250 g/ha) was 100 and the “Plant response rating, Goosegrass” value (goosegrass [6]; [9]) was 70. The “Plant response rating, Goosegrass” value (goosegrass [6]; [10]) was 80, the “Plant response rating, Goosegrass” value (goosegrass [6]; [11]) was 100 and the “Plant response rating, Goosegrass” value (goosegrass [6]; [12]) was 100. The “Plant response rating, Goosegrass” value (goosegrass [6]; Rate 250 g/ha) was 100, the “Plant response rating, Purple nutsedge” value (purple nutsedge [7]; [9]) was 0 and the “Plant response rating, Purple nutsedge” value (purple nutsedge [7]; [10]) was 0. The “Purple nutsedge plant response rating” value (purple nutsedge [7]; [11]) was 0, the “Purple nutsedge plant response rating” value (purple nutsedge [7]; [12]) was 10 and the “Plant response rating, Purple nutsedge” value (purple nutsedge [7]; Rate 250 g/ha) was 100. For the same molecule, the “Plant response rating, Green foxtail” value (Green foxtail [8]) was 100.
